Assay results from ChEMBL document CHEMBL4002591 (J Med Chem, 2017).

What was measured:
[1] = molecular target: Poly [ADP-ribose] polymerase 2 (Homo sapiens, UniProt Q9UGN5); experiment: Inhibition of recombinant human N-terminal GST-tagged PARP2 (2 to 583 residues) expressed in baculovirus infected Sf9 cells measured after 1 hr by chemiluminescence assay
[2] = molecular target: Poly [ADP-ribose] polymerase 1 (Homo sapiens, UniProt P09874); experiment: Inhibition of full length recombinant human N-terminal GST-tagged PARP1 expressed in Baculovirus infected Sf9 cells using TACS-Sapphire as substrate measured after 1 hr by colorimetric assay
Chain of Poly [ADP-ribose] polymerase 1 (P09874 whole entry, the tested form may be a part): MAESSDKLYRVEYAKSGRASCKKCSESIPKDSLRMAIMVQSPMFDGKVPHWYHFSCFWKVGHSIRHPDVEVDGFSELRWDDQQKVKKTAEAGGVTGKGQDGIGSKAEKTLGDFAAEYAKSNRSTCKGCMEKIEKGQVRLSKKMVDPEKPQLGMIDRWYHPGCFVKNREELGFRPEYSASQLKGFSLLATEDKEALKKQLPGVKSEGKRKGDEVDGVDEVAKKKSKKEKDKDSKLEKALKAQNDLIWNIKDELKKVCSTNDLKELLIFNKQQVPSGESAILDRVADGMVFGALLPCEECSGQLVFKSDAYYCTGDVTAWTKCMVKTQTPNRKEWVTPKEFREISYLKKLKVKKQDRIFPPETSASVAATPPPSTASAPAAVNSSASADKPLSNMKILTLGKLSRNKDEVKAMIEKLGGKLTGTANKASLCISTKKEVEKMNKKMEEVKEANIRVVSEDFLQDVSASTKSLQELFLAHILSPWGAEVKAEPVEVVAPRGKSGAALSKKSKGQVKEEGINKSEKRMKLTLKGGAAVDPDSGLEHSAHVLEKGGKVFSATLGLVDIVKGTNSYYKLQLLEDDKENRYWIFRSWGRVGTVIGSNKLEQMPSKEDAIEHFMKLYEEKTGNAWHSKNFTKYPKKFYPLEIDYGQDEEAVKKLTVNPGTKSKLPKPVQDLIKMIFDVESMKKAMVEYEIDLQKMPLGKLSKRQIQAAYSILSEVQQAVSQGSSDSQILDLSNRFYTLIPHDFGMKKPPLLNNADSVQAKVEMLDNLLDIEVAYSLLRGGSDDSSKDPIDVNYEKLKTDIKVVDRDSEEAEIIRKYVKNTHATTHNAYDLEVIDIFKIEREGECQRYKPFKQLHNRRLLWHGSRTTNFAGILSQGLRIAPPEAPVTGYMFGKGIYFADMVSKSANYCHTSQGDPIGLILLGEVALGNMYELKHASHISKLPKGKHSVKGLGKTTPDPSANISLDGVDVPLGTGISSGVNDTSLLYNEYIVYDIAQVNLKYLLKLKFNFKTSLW

[3] = molecular target: T1, Poly [ADP-ribose] polymerase tankyrase-1 (Homo sapiens, UniProt O95271); experiment: Inhibition of recombinant human N-terminal GST-tagged TNKS1 (1001 to 1327 residues) expressed in baculovirus infected sf9 cells using TACS-Sapphire as substrate measured after 30 mins by colorimetric assay
T1 sequence (O95271 whole entry): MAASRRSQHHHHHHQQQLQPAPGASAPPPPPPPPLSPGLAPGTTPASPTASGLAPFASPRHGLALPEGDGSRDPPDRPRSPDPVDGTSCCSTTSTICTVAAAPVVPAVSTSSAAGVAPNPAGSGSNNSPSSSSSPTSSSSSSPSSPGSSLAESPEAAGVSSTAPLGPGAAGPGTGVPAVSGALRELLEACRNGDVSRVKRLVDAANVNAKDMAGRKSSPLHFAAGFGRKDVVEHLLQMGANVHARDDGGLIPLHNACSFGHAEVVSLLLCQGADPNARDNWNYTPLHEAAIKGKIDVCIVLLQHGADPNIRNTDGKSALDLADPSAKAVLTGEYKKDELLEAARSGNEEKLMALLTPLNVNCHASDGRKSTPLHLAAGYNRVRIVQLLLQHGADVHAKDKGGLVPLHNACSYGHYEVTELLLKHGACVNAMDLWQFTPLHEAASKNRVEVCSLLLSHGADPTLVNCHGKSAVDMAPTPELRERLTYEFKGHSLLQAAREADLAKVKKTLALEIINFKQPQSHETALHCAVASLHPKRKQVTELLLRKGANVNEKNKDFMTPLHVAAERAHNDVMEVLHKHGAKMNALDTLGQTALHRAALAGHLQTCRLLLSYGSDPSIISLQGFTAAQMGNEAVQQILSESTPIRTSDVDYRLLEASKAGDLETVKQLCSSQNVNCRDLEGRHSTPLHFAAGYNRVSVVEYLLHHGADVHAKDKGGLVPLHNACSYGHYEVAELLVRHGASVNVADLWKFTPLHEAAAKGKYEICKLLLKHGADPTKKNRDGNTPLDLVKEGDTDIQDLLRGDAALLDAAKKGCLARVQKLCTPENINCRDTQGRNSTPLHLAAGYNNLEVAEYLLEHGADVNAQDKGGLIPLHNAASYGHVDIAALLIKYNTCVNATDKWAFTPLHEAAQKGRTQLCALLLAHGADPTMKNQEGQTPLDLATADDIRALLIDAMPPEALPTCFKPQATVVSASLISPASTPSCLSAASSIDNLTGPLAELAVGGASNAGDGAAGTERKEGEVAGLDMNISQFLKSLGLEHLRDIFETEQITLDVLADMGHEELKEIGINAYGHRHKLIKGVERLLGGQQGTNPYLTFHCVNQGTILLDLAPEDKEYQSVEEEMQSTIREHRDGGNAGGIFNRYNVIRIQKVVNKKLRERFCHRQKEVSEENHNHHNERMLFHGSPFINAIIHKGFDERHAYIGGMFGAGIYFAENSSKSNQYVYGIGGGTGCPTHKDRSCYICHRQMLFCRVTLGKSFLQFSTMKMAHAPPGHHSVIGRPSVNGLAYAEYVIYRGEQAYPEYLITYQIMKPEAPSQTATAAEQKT

[4] = molecular target: T2, Poly [ADP-ribose] polymerase tankyrase-2 (Homo sapiens, UniProt Q9H2K2); experiment: Inhibition of recombinant human N-terminal His-GST-tagged TNKS2 (849 to 1166 residues) expressed in baculovirus infected Sf9 cells using biotinylated NAD+ as substrate measured after 2 hrs
T2 sequence (Q9H2K2 whole entry): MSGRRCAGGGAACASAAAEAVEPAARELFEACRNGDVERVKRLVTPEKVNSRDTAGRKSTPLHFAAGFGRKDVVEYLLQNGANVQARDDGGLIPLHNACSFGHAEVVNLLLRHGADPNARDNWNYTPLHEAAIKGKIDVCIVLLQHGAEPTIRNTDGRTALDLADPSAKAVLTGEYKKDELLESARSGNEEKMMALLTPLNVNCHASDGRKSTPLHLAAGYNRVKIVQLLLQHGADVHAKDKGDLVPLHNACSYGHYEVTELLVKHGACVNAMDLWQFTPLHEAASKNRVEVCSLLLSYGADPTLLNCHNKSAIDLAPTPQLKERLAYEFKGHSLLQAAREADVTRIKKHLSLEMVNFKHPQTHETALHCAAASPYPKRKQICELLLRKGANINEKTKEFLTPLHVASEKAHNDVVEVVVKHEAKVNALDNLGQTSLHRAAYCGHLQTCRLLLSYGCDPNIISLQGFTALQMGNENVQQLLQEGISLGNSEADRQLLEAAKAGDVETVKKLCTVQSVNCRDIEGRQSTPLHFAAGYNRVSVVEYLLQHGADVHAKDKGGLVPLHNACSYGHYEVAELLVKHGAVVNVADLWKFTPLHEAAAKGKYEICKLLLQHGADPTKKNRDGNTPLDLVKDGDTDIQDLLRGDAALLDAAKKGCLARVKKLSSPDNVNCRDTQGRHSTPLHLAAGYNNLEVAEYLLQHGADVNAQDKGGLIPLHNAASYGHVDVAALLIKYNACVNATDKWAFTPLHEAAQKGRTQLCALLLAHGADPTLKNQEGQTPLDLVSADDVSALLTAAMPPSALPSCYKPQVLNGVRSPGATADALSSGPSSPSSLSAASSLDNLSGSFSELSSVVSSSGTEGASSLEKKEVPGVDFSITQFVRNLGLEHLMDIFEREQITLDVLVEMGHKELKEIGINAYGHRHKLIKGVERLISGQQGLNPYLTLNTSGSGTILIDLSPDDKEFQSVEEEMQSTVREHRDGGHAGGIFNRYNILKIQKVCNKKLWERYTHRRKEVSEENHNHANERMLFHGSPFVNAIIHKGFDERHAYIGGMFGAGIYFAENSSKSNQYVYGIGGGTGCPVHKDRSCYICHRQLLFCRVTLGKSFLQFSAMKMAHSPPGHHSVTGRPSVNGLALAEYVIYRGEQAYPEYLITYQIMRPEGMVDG

Chain of Poly [ADP-ribose] polymerase 2 (Q9UGN5 whole entry, the tested form may be a part): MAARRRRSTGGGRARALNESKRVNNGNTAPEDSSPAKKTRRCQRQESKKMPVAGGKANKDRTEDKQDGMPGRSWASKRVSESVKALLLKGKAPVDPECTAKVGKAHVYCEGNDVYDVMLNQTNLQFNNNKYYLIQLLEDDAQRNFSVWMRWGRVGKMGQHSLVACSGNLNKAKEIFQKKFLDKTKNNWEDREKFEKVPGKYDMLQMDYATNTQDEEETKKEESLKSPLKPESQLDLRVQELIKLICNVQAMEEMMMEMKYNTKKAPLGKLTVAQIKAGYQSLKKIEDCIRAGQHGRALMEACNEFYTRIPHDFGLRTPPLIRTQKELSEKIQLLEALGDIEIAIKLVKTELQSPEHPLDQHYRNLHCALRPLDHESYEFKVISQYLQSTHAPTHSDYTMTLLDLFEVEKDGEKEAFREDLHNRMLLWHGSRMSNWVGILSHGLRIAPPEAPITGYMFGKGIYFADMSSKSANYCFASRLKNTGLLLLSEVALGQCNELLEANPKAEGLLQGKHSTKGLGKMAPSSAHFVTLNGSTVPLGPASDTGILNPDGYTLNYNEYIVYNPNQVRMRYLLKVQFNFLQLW

Structure (SMILES) | IC50 [1] [µM] | IC50 ([2]; read-out: IC50) [µM] | IC50 [3] [µM] | IC50 ([2]; read-out: pIC50 (converted)) [µM] | IC50 [4] [µM]
O=C(Nc1cccc2cccnc12)c1ccc(N2C(=O)[C@@H]3[C@@H]4CC[C@@H](C4)[C@@H]3C2=O)cc1 | > 100 | > 100 | 0.343 |  | 
Cc1cccc2c(=O)[nH]c(CCC(=O)O)nc12 | 0.145 | 1 | > 100 | 6.61 | > 100
O=C(O)CCc1nc(O)c2ccccc2n1 | 0.125 | 6.7 | > 100 |  | > 100
Nc1ccc(C(=O)Nc2cccc3cccnc23)cc1 |  | > 100 | > 100 |  | 
